This note sets out measurements from ChEMBL document CHEMBL3621062, “Discovery, SAR, and X-ray Binding Mode Study of BCATm Inhibitors from a Novel DNA-Encoded Library” (ACS Med Chem Lett, 2015).

In this assay the target is T1, Branched-chain-amino-acid aminotransferase, mitochondrial (Homo sapiens, UniProt O15382).
T1 sequence (O15382 whole entry): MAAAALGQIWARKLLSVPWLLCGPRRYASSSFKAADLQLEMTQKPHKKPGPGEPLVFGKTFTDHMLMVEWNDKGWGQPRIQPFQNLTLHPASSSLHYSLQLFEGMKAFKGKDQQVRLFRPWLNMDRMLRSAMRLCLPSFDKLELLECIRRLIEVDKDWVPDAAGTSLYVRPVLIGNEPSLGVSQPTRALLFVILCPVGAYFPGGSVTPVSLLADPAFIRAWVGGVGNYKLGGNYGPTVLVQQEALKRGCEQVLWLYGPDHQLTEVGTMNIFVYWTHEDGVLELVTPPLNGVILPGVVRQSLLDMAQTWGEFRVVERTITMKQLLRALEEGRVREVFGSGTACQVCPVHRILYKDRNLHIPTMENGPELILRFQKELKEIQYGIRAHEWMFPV
The experiment in a line: Inhibition of human BCATm after 10 mins by fluorescent assay.
For `CNC(=O)c1ccc(-c2ccccc2)cc1O[C@@H]1CCN(C(=O)c2ccc(Br)s2)C1`, the IC50 was over 100 µM. With `CNC(=O)c1ccccc1OC1CCN(C(=O)c2ccc(Br)s2)C1` (stereo not given) the figure was over 100 µM; with `CNC(=O)c1ccc(-c2cccc(C(=O)O)c2)cc1OC1CCN(C(=O)c2cc(Br)ccc2NC(=O)OC(C)(C)C)C1` (stereo not given), over 100 µM.

`CNC(=O)c1ccc(-c2ccccc2NS(C)(=O)=O)cc1OC1CCN(C(=O)c2ccc(Br)s2)C1` (racemic) yielded an IC50 of 3.9 µM. This lies in the single-digit micromolar range. Take `CNC(=O)c1ccc(-c2ccccc2NS(C)(=O)=O)cc1O[C@@H]1CCN(C(=O)c2ccc(C#N)s2)C1`: the IC50 amounted to 15.1 µM.

For the molecule `CNC(=O)c1ccc(-c2cccc(C(=O)O)c2)cc1OC1CCN(C(=O)c2ccc(Br)s2)C1` (stereo not given), the IC50 is 74.1 µM. `CNC(=O)c1ccc(-c2cccc(C(=O)O)c2)cc1OC1CCN(C(=O)c2cc(Br)ccc2N)C1` (stereo not given): the concentration for half-maximal inhibition (IC50) is over 100 µM. For `CNC(=O)c1ccc(-c2ccccc2NS(C)(=O)=O)cc1O[C@@H]1CCN(C(=O)c2ccc(Cl)s2)C1`, inhibition was half-maximal at 2.8 µM (IC50).

With `CNC(=O)c1ccc(-c2ccccc2C)cc1O[C@@H]1CCN(C(=O)c2ccc(Br)s2)C1`, inhibition was half-maximal at 64.6 µM (IC50). With `CNC(=O)c1ccc(-c2ccccc2NS(C)(=O)=O)cc1O[C@@H]1CCN(C(=O)c2ccc(Br)s2)C1` the figure was 2 µM.
